Read-outs that look alike come from different tables or passages of the source.
Experiments:
Pim2 kinase = Pim2 kinase (Homo sapiens, UniProt Q9P1W9); assay: Pim2 ATP depletion assay; type: biochemical;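 note: Luciferase-based luminescent readout of ATP remaining after PIM2 phosphorylates a BAD peptide, final 5 nM enzyme, 4 µM ATP, 10 µM peptide, 2.5% DMSO, run to roughly half ATP consumption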
Pim3 kinase = Pim3 kinase (Homo sapiens, UniProt Q86V86); assay: Pim3 ATP depletion assay; type: biochemical
[1] = tested on: KMS 11 (human myeloma cell line); assay: Cell proliferation assay (CellTiter-Glo), KMS 11; type: cell-based; settings: KMS11 cells
Method: (§1) KMS 11 (human myeloma cell line), were cultured in IMDM supplemented with 10% FBS, sodium pyruvate and antibiotics. Cells were plated in the same medium at a density of 2000 cells per well into 96 well tissue culture plates, with outside wells vacant, on the day of assay. MM1.s (human myeloma cell line), were cultured in RPMI1640 supplemented with 10% FBS, sodium pyruvate and antibiotics. Cells were plated in the same medium at a density of 5000 cells per well into 96 well tissue culture plates, with outside wells vacant, on the day of assay.
(§2) Test compounds supplied in DMSO were diluted into DMSO at 500 times the desired final concentrations before dilution into culture media to 2 times final concentrations. Equal volumes of 2× compounds were added to the cells in 96 well plates and incubated at 37° C. for 3 days.
(§3) After 3 days plates were equilibrated to room temperature and equal volume of CellTiter-Glow Reagent (Promega) was added to the culture wells. The plates were agitated briefly and luminescent signal was measured with luminometer. The percent inhibition of the signal seen in cells treated with DMSO alone vs. cells treated with control compound was calculated and used to determine EC50 values (i.e., the concentration of a test compound that is required to obtain 50% of the maximum effect in the cells) for tested compounds, as shown in Example 763.

[2] = tested on: MM1.s (human myeloma cell line); assay: Cell proliferation assay (CellTiter-Glo), MM1.s; type: cell-based; settings: MM1.s cells
Method: as §1, §2, §3

Pim1 kinase = Pim1 kinase (Homo sapiens, UniProt P11309); assay: Pim1 ATP depletion assay; type: biochemical;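 note: Luciferase-luciferin luminescence readout of residual ATP after PIM1 transfers phosphate to a peptide substrate, 40 µM ATP added, reaction run to roughly half ATP consumption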
Sequence of Pim1 kinase (P11309 whole entry): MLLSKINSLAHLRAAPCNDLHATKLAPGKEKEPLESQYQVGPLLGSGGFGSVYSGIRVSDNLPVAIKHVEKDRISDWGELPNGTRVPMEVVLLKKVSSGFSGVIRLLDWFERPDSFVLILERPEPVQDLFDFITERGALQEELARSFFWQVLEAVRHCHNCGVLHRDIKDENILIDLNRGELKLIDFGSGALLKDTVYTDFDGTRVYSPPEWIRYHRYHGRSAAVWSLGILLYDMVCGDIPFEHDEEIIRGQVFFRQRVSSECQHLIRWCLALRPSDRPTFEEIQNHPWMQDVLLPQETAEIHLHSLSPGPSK

KDR kinase = KDR kinase (Homo sapiens, UniProt P35968); assay: KDR AlphaScreen assay; settings: KDR IC50 (μM)
Sequence of KDR kinase (P35968 20-1356): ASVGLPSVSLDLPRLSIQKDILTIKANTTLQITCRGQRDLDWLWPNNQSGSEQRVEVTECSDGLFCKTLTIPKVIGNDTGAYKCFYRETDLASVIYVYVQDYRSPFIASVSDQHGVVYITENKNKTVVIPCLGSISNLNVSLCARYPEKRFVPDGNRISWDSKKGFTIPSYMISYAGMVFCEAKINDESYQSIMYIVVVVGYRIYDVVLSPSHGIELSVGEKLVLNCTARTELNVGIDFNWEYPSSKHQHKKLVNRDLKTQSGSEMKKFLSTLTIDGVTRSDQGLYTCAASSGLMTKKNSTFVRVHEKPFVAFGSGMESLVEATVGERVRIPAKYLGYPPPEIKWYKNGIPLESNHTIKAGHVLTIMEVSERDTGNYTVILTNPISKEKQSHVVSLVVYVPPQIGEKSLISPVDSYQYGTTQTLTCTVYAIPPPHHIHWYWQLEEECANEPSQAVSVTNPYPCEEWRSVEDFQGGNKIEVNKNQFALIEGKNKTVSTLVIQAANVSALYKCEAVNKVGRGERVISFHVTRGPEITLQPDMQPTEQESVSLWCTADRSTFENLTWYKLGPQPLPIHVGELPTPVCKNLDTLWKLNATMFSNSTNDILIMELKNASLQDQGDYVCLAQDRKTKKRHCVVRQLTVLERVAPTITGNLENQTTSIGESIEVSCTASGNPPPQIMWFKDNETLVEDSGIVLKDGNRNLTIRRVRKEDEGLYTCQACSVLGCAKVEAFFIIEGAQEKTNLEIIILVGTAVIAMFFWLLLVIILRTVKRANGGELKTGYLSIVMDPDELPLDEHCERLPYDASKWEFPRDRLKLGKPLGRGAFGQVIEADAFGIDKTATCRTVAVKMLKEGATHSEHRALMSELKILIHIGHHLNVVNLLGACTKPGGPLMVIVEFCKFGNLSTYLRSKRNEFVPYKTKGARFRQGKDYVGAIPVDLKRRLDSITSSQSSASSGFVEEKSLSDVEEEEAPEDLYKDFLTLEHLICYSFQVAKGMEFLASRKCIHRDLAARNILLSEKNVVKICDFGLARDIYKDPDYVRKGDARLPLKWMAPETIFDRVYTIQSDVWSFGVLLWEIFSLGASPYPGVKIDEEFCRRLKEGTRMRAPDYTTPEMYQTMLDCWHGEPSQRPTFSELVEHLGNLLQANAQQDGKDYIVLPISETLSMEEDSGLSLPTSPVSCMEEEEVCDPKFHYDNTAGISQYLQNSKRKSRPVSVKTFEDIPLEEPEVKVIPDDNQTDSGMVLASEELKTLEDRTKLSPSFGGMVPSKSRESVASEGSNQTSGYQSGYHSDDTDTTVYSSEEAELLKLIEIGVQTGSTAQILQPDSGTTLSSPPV

[3] = Pim1 ATP depletion assay, read-out: IC50 (μM) PIM1
[4] = Pim1 ATP depletion assay, read-out: PIM1 IC50

Sequence of Pim2 kinase (Q9P1W9 whole entry): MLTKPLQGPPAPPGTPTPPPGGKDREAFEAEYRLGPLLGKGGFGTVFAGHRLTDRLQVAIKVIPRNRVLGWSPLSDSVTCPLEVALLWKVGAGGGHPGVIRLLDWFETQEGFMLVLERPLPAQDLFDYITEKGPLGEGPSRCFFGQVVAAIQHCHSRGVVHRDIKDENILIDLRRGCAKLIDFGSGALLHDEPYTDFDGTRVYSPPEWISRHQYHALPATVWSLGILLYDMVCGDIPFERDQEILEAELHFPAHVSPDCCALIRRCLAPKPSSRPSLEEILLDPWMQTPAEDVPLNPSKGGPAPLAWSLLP

| SMILES | IC50 (Pim2 kinase; read-out: IC50 (μM) PIM2) | IC50 (Pim3 kinase; read-out: IC50 (μM) PIM3) | EC50 ([1]; read-out: EC50 (μM) KMS11) | EC50 ([2]; read-out: EC50 (μM) MM1.s) | IC50 (Pim1 kinase; [3]) | IC50 (Pim2 kinase; read-out: PIM2 IC50) | IC50 (Pim3 kinase; read-out: PIM3 IC50) | EC50 ([1]; read-out: KMS11 EC50) | EC50 ([2]; read-out: MM1.s EC50) | IC50 (Pim1 kinase; [4]) | IC50 (KDR kinase) | IC50 (Pim1 kinase) |
| --- | --- | --- | --- | --- | --- | --- | --- | --- | --- | --- | --- | --- |
| Nc1ccc(-c2c(F)cccc2F)nc1C(=O)Nc1cnccc1N1CC[C@H](F)[C@@H](N)C1 [Example 276, 3-Amino-6-(2,6-difluoro-phenyl)-pyridine-2-carboxylic acid (3-amino-4-fluoro-3,4,5,6-tetrahydro-2H-[1,4′]bipyridinyl-3′-yl)-amide] | < 1 µM | < 1 µM | 1 to 5 µM | 5 to 10 µM | < 1 µM | – | – | – | – | – | – | – |
| Nc1cc(F)c(-c2c(F)cccc2F)nc1C(=O)Nc1cnccc1N1CCC[C@H](N)C1 [Example 516, 3-Amino-6-(2,6-difluoro-phenyl)-5-fluoro-pyridine-2-carboxylic acid (3-amino-3,4,5,6-tetrahydro-2H-[1,4′]bipyridinyl-3′-yl)-amide] | < 1 µM | < 1 µM | < 1 µM | < 1 µM | < 1 µM | – | – | – | – | – | – | – |
| CO[C@@H]1C[C@H](N)CN(c2ccncc2NC(=O)c2nc(-c3cc(C(=O)NC(C)C)ccc3F)ccc2N)C1 [Example 298, 3-Amino-6-(2-fluoro-5-isopropylcarbamoyl-phenyl)-pyridine-2-carboxylic acid (3-amino-5-methoxy-3,4,5,6-tetra-hydro-2H-[1,4′]bipyridinyl-3′-yl)-amide] | < 1 µM | < 1 µM | < 1 µM | < 1 µM | < 1 µM | – | – | – | – | – | – | – |
| COCCOc1nc(-c2ccc(N)c(C(=O)Nc3cnccc3N3CCC[C@H](N)C3)n2)cnc1N [Example 520, 3-Amino-6-[5-amino-6-(2-methoxy-ethoxy)-pyrazin-2-yl]-pyridine-2-carboxylic acid (3-amino-3,4,5,6-tetrahydro-2H-[1,4′]bipyridinyl-3′-yl)-amide] | < 1 µM | < 1 µM | 5 to 10 µM | 5 to 10 µM | < 1 µM | – | – | – | – | – | 1 to 10 µM | – |
| N[C@H]1CCCN(c2ccncc2NC(=O)c2ccc(F)c(-c3ccccc3)n2)C1 [Example 442, 5-Fluoro-6-phenyl-pyridine-2-carboxylic acid (3-amino-3,4,5,6-tetrahydro-2H-[1,4′]bipyridinyl-3′-yl)-amide] | < 1 µM | < 1 µM | 1 to 5 µM | 5 to 10 µM | < 1 µM | – | – | – | – | – | – | – |
| Nc1ccc(-c2c(F)cccc2F)nc1C(=O)Nc1cnccc1N1CC[C@H](O)[C@H](N)C1 [Example 754, 3-Amino-6-(2,6-difluoro-phenyl)-pyridine-2-carboxylic acid (3-amino-4-hydroxy-3,4,5,6-tetra-hydro-2H-[1,4′]bipyridinyl-3′-yl)-amide] | – | – | – | – | – | < 1 µM | < 1 µM | < 1 µM | 1 to 5 µM | – | – | < 1 µM |
| Nc1ccc(-c2c(F)cccc2F)nc1C(=O)Nc1cnccc1N1CCCC2(CCNC2)C1 (stereo not drawn) [Example 290, 3-Amino-6-(2,6-difluoro-phenyl)-pyridine-2-carboxylic acid [4-(2,7-diaza-spiro[4.5]dec-7-yl)-pyridin-3-yl]-amide] | < 1 µM | < 1 µM | 1 to 5 µM | 1 to 5 µM | < 1 µM | – | – | – | – | – | – | – |
| CC(C)Oc1ccc(F)c(-c2nc(C(=O)Nc3cnccc3N3CCC[C@H](N)C3)c(N)cc2F)c1F [Example 496, 3-Amino-6-(2,6-difluoro-3-isopropoxy-phenyl)-5-fluoro-pyridine-2-carboxylic acid (3-amino-3,4,5,6-tetrahydro-2H-[1,4′]bipyridinyl-3′-yl)-amide] | < 1 µM | < 1 µM | < 1 µM | < 1 µM | < 1 µM | – | – | – | – | – | – | – |
| Nc1ccc(-c2c(F)cccc2F)nc1C(=O)Nc1cnccc1N1CCC[C@@H](N)C1 [Example 462, 3-Amino-6-(2,6-difluoro-phenyl)-pyridine-2-carboxylic acid (3-amino-3,4,5,6-tetrahydro-2H-[1,4′]bipyridinyl-3′-yl)-amide] | < 1 µM | < 1 µM | 1 to 5 µM | 1 to 5 µM | < 1 µM | – | – | – | – | – | – | – |
| CC(C)NC(=O)c1ccc(F)c(-c2nc(C(=O)Nc3cnccc3N3CCC[C@H](N)C3)ccc2F)c1 [Example 443, 5-Fluoro-6-(2-fluoro-5-isopropylcarbamoyl-phenyl)-pyridine-2-carboxylic acid (3-amino-3,4,5,6-tetrahydro-2H-[1,4′]bipyridinyl-3′-yl)-amide] | < 1 µM | < 1 µM | 1 to 5 µM | 5 to 10 µM | < 1 µM | – | – | – | – | – | – | – |
| CCCOc1ccc(F)c(-c2ccc(N)c(C(=O)Nc3cnccc3N3CCC[C@H](N)C3)n2)c1F [Example 491, 3-Amino-6-(2,6-difluoro-3-propoxy-phenyl)-pyridine-2-carboxylic acid (3-amino-3,4,5,6-tetrahydro-2H-[1,4′]bipyridinyl-3′-yl)-amide] | < 1 µM | < 1 µM | 1 to 5 µM | 1 to 5 µM | < 1 µM | – | – | – | – | – | – | – |
| Nc1ccc(-c2c(F)cccc2F)nc1C(=O)Nc1cnccc1N1CC[C@@H](O)[C@H](N)C1 [Example 679, 3-Amino-6-(2,6-difluoro-phenyl)-pyridine-2-carboxylic acid (3-amino-4-hydroxy-3,4,5,6-tetrahydro-2H-[1,4′]bi-pyridinyl-3′-yl)-amide] | – | – | – | – | – | < 1 µM | < 1 µM | 1 to 5 µM | < 1 µM | – | – | < 1 µM |
| CCCOc1ccc(F)c(-c2ccc(N)c(C(=O)Nc3cnccc3N3C[C@@H](N)C[C@@H](F)C3)n2)c1 [Example 577, 3-Amino-6-(2-fluoro-5-propoxy-phenyl)-pyridine-2-carboxylic acid (3-amino-5-fluoro-3,4,5,6-tetrahydro-2H-[1,4′]bipyridinyl-3′-yl)-amide] | – | – | – | – | – | < 1 µM | < 1 µM | 1 to 5 µM | 1 to 5 µM | < 1 µM | – | – |

Now from value to compound, other results behind:

| IC50 (Pim2 kinase; read-out: IC50 (μM) PIM2) | IC50 (Pim3 kinase; read-out: IC50 (μM) PIM3) | EC50 ([1]; read-out: EC50 (μM) KMS11) | EC50 ([2]; read-out: EC50 (μM) MM1.s) | IC50 (Pim1 kinase; [3]) | IC50 (Pim2 kinase; read-out: PIM2 IC50) | IC50 (Pim3 kinase; read-out: PIM3 IC50) | EC50 ([1]; read-out: KMS11 EC50) | EC50 ([2]; read-out: MM1.s EC50) | IC50 (Pim1 kinase; [4]) | IC50 (KDR kinase) | SMILES | IC50 (Pim1 kinase) |
| --- | --- | --- | --- | --- | --- | --- | --- | --- | --- | --- | --- | --- |
| – | – | – | – | – | < 1 µM | < 1 µM | < 1 µM | 1 to 5 µM | < 1 µM | – | N[C@@H]1CN(c2ccncc2NC(=O)c2ccc(F)c(-c3c(F)cccc3F)n2)CC[C@H]1O [Example 683, 6-(2,6-Difluoro-phenyl)-5-fluoro-pyridine-2-carboxylic acid (3-amino-4-hydroxy-3,4,5,6-tetrahydro-2H-[1,4′]bi-pyridinyl-3′-yl)-amide] | – |
| – | – | – | – | – | < 1 µM | < 1 µM | 1 to 5 µM | < 1 µM | < 1 µM | – | CC(C)NC(=O)c1ccc(F)c(-c2ccc(N)c(C(=O)Nc3cnccc3N3CC[C@H](O)[C@H](N)C3)n2)c1 [Example 753, 3-Amino-6-(2-fluoro-5-isopropyl-carbamoyl-phenyl)-pyridine-2-carboxylic acid (3-amino-4-hydroxy-3,4,5,6-tetrahydro-2H-[1,4′]bipyridinyl-3′-yl)-amide] | – |
| – | – | – | – | – | < 1 µM | < 1 µM | < 1 µM | 1 to 5 µM | < 1 µM | – | CC(C)NC(=O)c1ccc(F)c(-c2nc(C(=O)Nc3cnccc3N3CCC[C@H](N)C3)c(N)cc2F)c1F [Example 736, 3-Amino-6-(2,6-difluoro-3-isopropylcarbamoyl-phenyl)-5-fluoro-pyridine-2-carboxylic acid (3-amino-3,4,5,6-tetra-hydro-2H-[1,4′]bipyridinyl-3′-yl)-amide] | – |
| – | – | – | – | – | < 1 µM | < 1 µM | 1 to 5 µM | 1 to 5 µM | < 1 µM | – | Nc1cc(F)c(-c2ncccc2F)nc1C(=O)Nc1cnccc1N1CCC[C@H](N)C1 [Example 744, 5-Amino-3,3′-difluoro-[2,2′]bi-pyridinyl-6-carboxylic acid (3-amino-3,4,5,6-tetrahydro-2H-[1,4′]bipyridinyl-3′-yl)-amide] | – |
| – | – | – | – | – | < 1 µM | < 1 µM | 1 to 5 µM | 1 to 5 µM | < 1 µM | – | Nc1ccc(-c2ncccc2F)nc1C(=O)Nc1cnccc1N1CCC[C@H](N)C1 [Example 702, 5-Amino-3′-fluoro-[2,2′]bi-pyridinyl-6-carboxylic acid (3-amino-3,4,5,6-tetrahydro-2H-[1,4′]bipyridinyl-3′-yl)-amide] | – |
| – | – | – | – | – | < 1 µM | < 1 µM | 1 to 5 µM | 1 to 5 µM | < 1 µM | – | CO[C@@H]1C[C@H](N)CN(c2ccncc2NC(=O)c2nc(-c3ccccc3)ccc2N)C1 [Example 580, 3-Amino-6-phenyl-pyridine-2-carboxylic acid (3-amino-5-methoxy-3,4,5,6-tetrahydro-2H-[1,4′]bipyridinyl-3′-yl)-amide] | – |
